18 compounds from US20240150396A1 (The Texas A&M University System, priority 2021, published 2024) can be followed below.

Values joined by “and” are separate entries in the source; they are usually repeats but may differ in a detail not shown here. Equal entries are not always repeated. Where two headings read alike, the source gives them in different places. Non-standard residues stand in square brackets, D forms with d. Residues, ends and D or L forms follow the SMILES beside them. *: point of attachment. hPhe = N[CH](CCc1ccccc1)C(=O)O; 4Pal = N[CH](Cc1ccncc1)C(=O)O; AMC = Cc1cc(=O)oc2cc(N*)ccc12; Cbz = O=C(OCc1ccccc1)*

Assay [1] deals with T1, cruzain (Trypanosoma cruzi, UniProt P25779). Nature of the assay: biochemical. The note with it: pH 7.5; for kinact/KI: irreversible inactivation. On the procedure:
All enzyme assays were performed at 25° C. Initial rates of the peptidolytic reaction catalyzed by cruzain were measured by monitoring the fluorescence generated by cleavage of the dipeptide-AMC bond. Assays were conducted in 96-well plates (Greiner; flat-bottom, clear black plates) in a total volume of 250 μL, containing either 50 mM MES (pH 7.5), 50 mM TAPSO, 100 mM DEA, 1 mM CHAPS, 1 mM Na2EDTA, 5 mM DTT, and 10% DMSO (v/v) or 50 mM sodium acetate (pH 5.5), 50 mM MES, 100 mM TEA, 1 mM CHAPS, 1 mM Na2EDTA, 5 mM DTT, and 10% DMSO (v/v). Substrates were dissolved in 100% DMSO and were then diluted 10-fold such that when added to reaction mixtures, final DMSO concentration was 10% (v/v). […] Fluorescence was measured on either a SpectraMax M5 (Molecular Devices) or a Synergy HTX (BioTek, Winooski, VT) microplate reader (λex=360 nm, λem=460 nm). Initial rates were determined from continuous kinetic time courses and calculated from the earliest time points, typically at less than 10 min.
(2) Enzyme and compound were preincubated over extended periods of time, and then aliquots were removed and diluted 50-fold to 100-fold into reaction mixtures containing 10 μM Cbz-Phe-Arg-AMC, followed by the assessment of the resulting time courses.
Data for time-dependent inhibition were fitted by several methods.
Values of kobs versus [inhibitor] were then replotted and fitted to eq 4 for which k3 and k4 represent the respective rates of formation and dissolution of the EI* complex as depicted in FIG. 9.
In addition, time-course data were fitted globally by two methods. First, expressions for vs, vi, and kobs were substituted into eq 3 to generate eq 6, which was used to fit time-course data at all concentrations of inhibitors simultaneously. Second, time-course data were fitted using KinTek Explorer as either a single-binding step model with the two kinetic parameters k3/Ki and k4 or a two-step binding mechanism as shown in FIG. 9 from which rate constants k1-k4 are determined (Supporting Information).
Enzyme Assays. The preparation of cruzain and 3CL^pro were described in previous publications.^8, 34 The evaluation of inhibitors was modified from our lab protocol and described briefly as follows.^35 All enzyme assays were conducted in 96-well, clear bottom, black plates at 25° C., and fluorescence emanating from product formation was measured using either a SpectraMax M5 (Molecular Devices) or a Synergy HTX (Biotek) microplate reader, with excitation at λex=360 nm and emission at λem=460 nm. […] Reactions were started with addition of enzyme (typically, to a final concentration of 0.2 nM for cruzain or 40 nM for 3CL^pro), and the time courses were recorded for 0.5-1 h.
Kinetic Data Analysis. All time-course data were fitted to eq. 1, wherein P is the fluorescence generated by formation of AMC or liberated ACC, C is the background constant, vi and vs are respectively initial-state and steady-state reaction rates, t is time, and kobs is the observed rate of conversion of the initial inhibited rate to the final inhibited rate.^46
Overall inhibition constants (Ki* values) were obtained by fitting vs/v0 to eq. 4, wherein vs and v0 are steady-state reaction rates in the presence and absence of inhibitor respectively, [S] and [I] represent the fixed concentration of substrate and variable inhibitor, Km is the Michaelis constant of the substrate.

For assay [2], the target named is T1, cruzain. Nature of the assay: Kinetic parameters of peptide substrates for cruzain. Format: biochemical. The note with it: for Km / kcat / kcat/Km: pH 7.5, 25° C., 10% DMSO; for kcat rel: relative to Cbz-Phe-Arg-AMC. The method, then:
All enzyme assays were performed at 25° C. Initial rates of the peptidolytic reaction catalyzed by cruzain were measured by monitoring the fluorescence generated by cleavage of the dipeptide-AMC bond. Assays were conducted in 96-well plates (Greiner; flat-bottom, clear black plates) in a total volume of 250 μL, containing either 50 mM MES (pH 7.5), 50 mM TAPSO, 100 mM DEA, 1 mM CHAPS, 1 mM Na2EDTA, 5 mM DTT, and 10% DMSO (v/v) or 50 mM sodium acetate (pH 5.5), 50 mM MES, 100 mM TEA, 1 mM CHAPS, 1 mM Na2EDTA, 5 mM DTT, and 10% DMSO (v/v). Substrates were dissolved in 100% DMSO and were then diluted 10-fold such that when added to reaction mixtures, final DMSO concentration was 10% (v/v). Reactions were initiated with the addition of 1-10 μL of cruzain (final concentrations: 0.1-3.0 nM (preincubation studies)). Fluorescence was measured on either a SpectraMax M5 (Molecular Devices) or a Synergy HTX (BioTek, Winooski, VT) microplate reader (λex=360 nm, λem=460 nm). Initial rates were determined from continuous kinetic time courses and calculated from the earliest time points, typically at less than 10 min.
Initial velocity data for cruzain-catalyzed reactions of fluorogenic peptide substrates were determined by fitting to eq 1 using GraphPad Prism 6.0 or SigmaPlot 12.0. For eq 1, kcat is the turnover number, [E]t is the concentration of active sites of cruzain, and Ka is the Michaelis constant for the substrate A. Cruzain concentrations were determined by spectrophotometric analysis of purified sample solutions as described.^44

[3] abbreviates: apparent initial inhibition constant, 25° C., read-out: Ki.
Where [4] appears, read: apparent tight-binding inhibition constant, 25° C., read-out: Ki*.
[5] abbreviates: obtained >10 minutes following initiation of reaction by addition of enzyme, read-out: Ki* Cruzain.

T1 sequence (P25779 123-467 limits assumed): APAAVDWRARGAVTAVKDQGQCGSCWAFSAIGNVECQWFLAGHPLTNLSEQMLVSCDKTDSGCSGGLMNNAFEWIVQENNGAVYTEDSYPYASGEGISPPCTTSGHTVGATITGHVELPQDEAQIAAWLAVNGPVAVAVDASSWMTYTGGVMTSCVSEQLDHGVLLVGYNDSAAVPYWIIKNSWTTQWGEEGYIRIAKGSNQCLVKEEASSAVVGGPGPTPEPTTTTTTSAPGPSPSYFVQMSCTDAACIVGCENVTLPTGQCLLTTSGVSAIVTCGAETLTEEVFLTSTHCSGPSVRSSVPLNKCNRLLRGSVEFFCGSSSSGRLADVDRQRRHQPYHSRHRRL

With `NC(=O)/C=C/[C@H](Cc1ccccc1)NC(=O)[C@H](Cc1ccccc1)NC(=O)OCc1ccccc1` [Compound 2, Benzyl ((S)-1-(((S,E)-5-Amino-5-oxo-1-phenylpent-3-en-2-yl)-amino)-1-oxo-3-phenylpropan-2-yl)carbamate], the Ki on cruzain [1] (setting [3]) came out at 37 ± 2 µM. At cruzain [1] (25° C.), the second-order inactivation constant (kinact/KI) is 22 M⁻¹ s⁻¹ and 21.7 ± 0.8 M⁻¹ s⁻¹.

Turning to “N—((S)-1-(((2S,3S)-3-hydroxy-1,2,3,4-tetrahydronaphthalen-2-yl)amino)-1-oxo-3-phenylpropan-2-yl)-4-methylpiperazine-1-carboxamide and N—((S)-1-(((2R,3R)-3-hydroxy-1,2,3,4-tetrahydronaphthalen-2-yl)amino)-1-oxo-3-phenylpropan-2-yl)-4-methylpiperazine-1-carboxamide [Compound 50]”, the Ki at cruzain [1] (setting [4]) and on cruzain [1] (setting [5]) was above 100 µM in each case.

On to `Cc1cc(=O)oc2cc(NC(=O)[C@H](CCc3ccccc3)NC(=O)[C@H](Cc3ccncc3)NC(=O)OCc3ccccc3)ccc12` [Compound S8, Cbz-(4-Pyr)Ala-hPhe-AMC] (Cbz-[4Pal]-[hPhe]-{AMC}), for which, on cruzain [2], the Michaelis-Menten constant (Km) was determined as 4.6 µM; the kcat was 5.3 s⁻¹ and 5.3 ± 0.2 s⁻¹; the specificity constant (kcat/Km) was 1.1e+06 ± 100000 M⁻¹ s⁻¹; the kcat rel turned out to be 0.55.

`Cc1cc(=O)oc2cc(NC(=O)C(Cc3ccncc3)NC(=O)C(Cc3ccccc3)NC(=O)OCc3ccccc3)ccc12` (stereo not drawn) [Compound S5, Cbz-Phe-(4-Pyr)Ala-AMC] (Cbz-Phe-[4Pal]-{AMC}; configuration not given here): at cruzain [2], the Km worked out at 3.7 µM, the turnover number (kcat) is 7.5 ± 0.5 s⁻¹, the kcat/Km amounted to 2e+06 ± 400000 M⁻¹ s⁻¹ and the kcat rel amounted to 0.76.

On to `C[C@@H](/C=C/c1ccccn1)NC(=O)[C@H](Cc1ccccc1)NC(=O)OCc1ccccc1` [Compound 19, Benzyl ((S)-1-Oxo-3-phenyl-1-(((S,E)-4-(pyridin-2-yl)but-3-en-2-yl)amino)propan-2-yl)carbamate], for which the Ki at cruzain [1] (setting [4]) was determined as 4.8 ± 0.2 µM.

As to `Cc1cc(=O)oc2cc(NC(=O)C(CCc3ccccc3)NC(=O)C(Cc3ccccc3)NC(=O)N3CCN(C)CC3)ccc12` (stereo not drawn) [Compound S7, NMePip-Phe-hPhe-AMC], on cruzain [2], the Michaelis constant (Km) stood at 3.1 ± 0.3 µM; the kcat was 4.0 ± 0.1 s⁻¹; the kcat/Km is 1.3e+06 M⁻¹ s⁻¹ and 1.3e+06 ± 100000 M⁻¹ s⁻¹; the kcat rel is listed as 0.42.

Take `Cc1cc(=O)oc2cc(NC(=O)[C@H](Cc3ccccc3)NC(=O)[C@H](Cc3ccccc3)NC(=O)N3CCN(C)CC3)ccc12` [Compound S11, NMePip-Phe-Phe-AMC]: at cruzain [2], the Km worked out at 14 ± 4 µM, the catalytic constant (kcat) is 2.8 ± 0.06 s⁻¹, the kcat/Km was found to be 200000 ± 40000 M⁻¹ s⁻¹ and the kcat rel amounted to 0.29.

Regarding `Cc1cc(=O)oc2cc(NC(=O)C(CCc3ccccc3)NC(=O)C(CC(C)C)NC(=O)OCc3ccccc3)ccc12` (stereo not drawn) [Compound S3, Cbz-Leu-hPhe-AMC] (Cbz-Leu-[hPhe]-{AMC}; configuration not given here), on cruzain [2], the Km turned out to be 0.8 ± 0.2 µM, the kcat was 3.0 ± 0.2 s⁻¹, the catalytic efficiency (kcat/Km) amounted to 4e+06 ± 1e+06 M⁻¹ s⁻¹ and the kcat rel amounted to 0.21.

As to `O=C(N[C@@H](Cc1ccccc1)C(=O)N[C@H](/C=C/c1ccncn1)Cc1ccccc1)OCc1ccccc1` [Compound 23, Benzyl ((S)-1-Oxo-3-phenyl-1-(((S,E)-1-phenyl-4-(pyrimidin-4-yl)-but-3-en-2-yl)amino)propan-2-yl)carbamate], the Ki at cruzain [1] (setting [3]) was 10.8 ± 1.4 µM; on cruzain [1] (setting [4]) it was 1.14 ± 0.07 µM.

As to `O=C(N[C@@H](Cc1ccccc1)C(=O)N[C@H](CO)Cc1ccccc1O)OCc1ccccc1` [Compound 51], at cruzain [1] (setting [5]), the Ki was above 10 µM.

For `NC(=O)/C=C/[C@H](CCc1ccccc1)NC(=O)[C@H](Cc1ccccc1)NC(=O)OCc1ccccc1` [Compound 3, Benzyl ((S)-1-(((S,E)-6-Amino-6-oxo-1-phenylhex-4-en-3-yl)-amino)-1-oxo-3-phenylpropan-2-yl)carbamate], the Ki at cruzain [1] (setting [3]) amounted to 3 ± 1 µM. For the same compound, at cruzain [1] (25° C.), the kinact/KI was found to be 1700 ± 500 M⁻¹ s⁻¹.

In the case of `Cc1cc(=O)oc2cc(NC(=O)[C@H](Cc3ccccc3)NC(=O)[C@H](Cc3ccccc3)NC(=O)OCc3ccccc3)ccc12` [Compound S9, Cbz-Phe-Phe-AMC] (Cbz-Phe-Phe-{AMC}), at cruzain [2], the Km stood at 0.34 µM, the kcat turned out to be 0.26 ± 0.01 s⁻¹, the kcat/Km is 800000 ± 200000 M⁻¹ s⁻¹ and the kcat rel turned out to be 0.03.

As for `C[n+]1ccc(/C=C/[C@H](Cc2ccccc2)NC(=O)[C@H](Cc2ccccc2)NC(=O)OCc2ccccc2)cc1` [Compound 22, 4-((S,E)-3-((S)-2-(((Benzyloxy)carbonyl)amino)-3-phenylpropanamido)-4-phenylbut-1-en-1-yl)-1-methylpyridin-1-ium Iodide], the Ki on cruzain [1] (setting [3]) was determined as 92 ± 5 µM; on cruzain [1] (setting [4]) it was 4 ± 0.1 µM.

Turning to `O=C(N[C@@H](Cc1ccccc1)C(=O)N[C@H](/C=C/S(=O)(=O)c1ccccc1)Cc1ccccc1)OCc1ccccc1` [Compound 1], the Ki at cruzain [1] (setting [5]) is 0.0036 µM.

Consider `CN1CCN(C(=O)N[C@@H](Cc2ccccc2)C(=O)N[C@H](/C=C/c2ccccn2)CCc2ccccc2)CC1` [Compound 14, 4-Methyl-N—((S)-1-oxo-3-phenyl-1-(((S,E)-5-phenyl-1-(pyridin-2-yl)pent-1-en-3-yl)amino)propan-2-yl)piperazine-1-carboxamide], for which the Ki on cruzain [1] (setting [4]) was 3.4 µM.

For the compound `O=C(N[C@@H](Cc1ccccc1)C(=O)N[C@H](/C=C/c1ccncc1)Cc1ccccc1)OCc1ccccc1` [Compound 21, Benzyl ((S)-1-Oxo-3-phenyl-1-(((S,E)-1-phenyl-4-(pyridin-4-yl)-but-3-en-2-yl)amino)propan-2-yl)carbamate], at cruzain [1] (setting [4]), the Ki came to 5.5 ± 0.2 µM.

Turning to `CN1CCN(C(=O)N[C@@H](Cc2ccccc2)C(=O)N[C@H](/C=C/C(N)=O)CCc2ccccc2)CC1` [Compound 4, N—((S)-1-(((S,E)-6-Amino-6-oxo-1-phenylhex-4-en-3-yl)amino)-1-oxo-3-phenylpropan-2-yl)-4-methylpiperazine-1-carboxamide], at cruzain [1] (setting [3]), the Ki worked out at 3.4 ± 0.4 µM. Besides, at cruzain [1] (25° C.), the kinact/KI was determined as 1900 ± 200 M⁻¹ s⁻¹.

In the case of `CC(C)C[C@H](NC(=O)OCc1ccccc1)C(=O)N[C@H](/C=C/c1ccccn1)CCc1ccccc1` [Compound 18, Benzyl ((S)-4-Methyl-1-oxo-1-(((S,E)-5-phenyl-1-(pyridin-2-yl)-pent-1-en-3-yl)amino)pentan-2-yl)carbamate], the Ki is 7.8 ± 0.6 µM on cruzain [1] (setting [3]) and 1.42 µM at cruzain [1] (setting [4]).
